Laboratory results reported in US9168259B2 (GRÜNENTHAL GMBH, priority 2010, dated 2015).

Target: T1, KCNQ2/3 channels (Homo sapiens, UniProt O43525+O43526)
T1 construct: expressed in transfected cells
Assay: Fluorescence assay using a voltage sensitive dye (fluorimetry)
Type: cell-based
Conditions: CHO-K1 cells expressing KCNQ2/3; for Emax: CHO-K1, plateau effect relative to saturated retigabine (50 μM) = 100%, negative values = antagonistic, read-out: Fluorimetry % efficacy (retigabine = 100%); for EC50: IC50 where % efficacy is negative, read-out: Fluorimetry EC50/IC50

T1 sequence (O43526 whole entry): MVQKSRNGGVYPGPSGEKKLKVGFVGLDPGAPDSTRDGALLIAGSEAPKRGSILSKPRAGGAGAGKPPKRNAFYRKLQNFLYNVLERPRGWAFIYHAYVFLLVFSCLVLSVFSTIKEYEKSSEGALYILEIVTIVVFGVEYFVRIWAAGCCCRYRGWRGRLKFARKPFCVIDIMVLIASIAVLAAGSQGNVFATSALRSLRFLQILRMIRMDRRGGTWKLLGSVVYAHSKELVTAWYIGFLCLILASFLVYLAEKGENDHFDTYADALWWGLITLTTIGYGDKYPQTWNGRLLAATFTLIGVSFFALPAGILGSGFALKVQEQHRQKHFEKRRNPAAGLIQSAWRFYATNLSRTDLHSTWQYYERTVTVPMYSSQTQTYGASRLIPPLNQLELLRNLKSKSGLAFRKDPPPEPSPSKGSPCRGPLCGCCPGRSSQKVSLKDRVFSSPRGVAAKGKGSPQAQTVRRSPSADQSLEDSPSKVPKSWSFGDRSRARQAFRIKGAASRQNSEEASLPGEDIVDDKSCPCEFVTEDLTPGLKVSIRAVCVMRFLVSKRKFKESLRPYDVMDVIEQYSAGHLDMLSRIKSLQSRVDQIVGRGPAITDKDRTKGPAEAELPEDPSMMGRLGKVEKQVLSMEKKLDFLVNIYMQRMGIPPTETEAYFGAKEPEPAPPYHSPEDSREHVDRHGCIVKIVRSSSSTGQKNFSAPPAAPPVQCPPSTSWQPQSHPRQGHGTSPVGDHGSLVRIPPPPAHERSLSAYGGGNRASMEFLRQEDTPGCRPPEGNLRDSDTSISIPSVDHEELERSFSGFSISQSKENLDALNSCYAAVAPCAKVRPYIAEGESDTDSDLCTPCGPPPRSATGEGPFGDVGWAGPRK
T1 sequence (O43525 whole entry): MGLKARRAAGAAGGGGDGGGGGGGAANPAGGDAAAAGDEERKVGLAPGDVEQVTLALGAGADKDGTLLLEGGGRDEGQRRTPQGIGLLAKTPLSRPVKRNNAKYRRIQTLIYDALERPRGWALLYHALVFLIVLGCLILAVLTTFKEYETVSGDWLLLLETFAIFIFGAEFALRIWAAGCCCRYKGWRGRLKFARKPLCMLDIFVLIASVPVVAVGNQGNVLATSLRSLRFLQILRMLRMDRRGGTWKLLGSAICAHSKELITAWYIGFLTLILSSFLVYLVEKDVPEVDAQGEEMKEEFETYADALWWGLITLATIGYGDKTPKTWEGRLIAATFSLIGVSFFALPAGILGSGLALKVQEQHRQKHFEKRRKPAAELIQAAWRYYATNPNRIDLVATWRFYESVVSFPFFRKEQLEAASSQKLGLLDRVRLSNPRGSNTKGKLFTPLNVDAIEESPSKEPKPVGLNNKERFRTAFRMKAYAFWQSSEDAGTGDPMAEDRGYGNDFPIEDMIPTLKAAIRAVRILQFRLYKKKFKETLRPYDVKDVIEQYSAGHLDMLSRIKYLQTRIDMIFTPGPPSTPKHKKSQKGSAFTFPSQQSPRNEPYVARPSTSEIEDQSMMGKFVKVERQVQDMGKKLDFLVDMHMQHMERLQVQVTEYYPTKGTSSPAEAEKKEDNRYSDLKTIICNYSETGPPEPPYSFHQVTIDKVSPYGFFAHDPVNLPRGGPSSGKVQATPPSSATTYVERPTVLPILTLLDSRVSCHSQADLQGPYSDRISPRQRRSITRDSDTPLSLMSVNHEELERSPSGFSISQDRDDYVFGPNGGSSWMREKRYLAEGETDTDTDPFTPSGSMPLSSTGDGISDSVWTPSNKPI

Compound | Emax | EC50
CCSc1nc(N2CCOCC2)cc(C)c1C(=O)NCCOC(C)(C)C [Example 83, N-(2-tert-Butoxy-ethyl)-2-ethylsulfanyl-4-methyl-6-morpholin-4-yl-pyridine-3-carboxylic acid amide] | 182% | 2800 nM
CCCSc1nc(N2CCOCC2)cc(C)c1C(=O)NCc1cccc(F)c1 [Example 56, N-[(3-Fluorophenyl)-methyl]-4-methyl-6-morpholin-4-yl-2-(propylsulfanyl)-pyridine-3-carboxylic acid amide] | 167% | 77 nM
CCSc1nc(N2CCOCC2)cc(C)c1C(=O)NCCCc1cccnc1 [Example 114, 2-Ethylsulfanyl-4-methyl-6-morpholin-4-yl-N-(3-pyridin-3-yl-propyl)-pyridine-3-carboxylic acid amide] | 126% | 9380 nM
CCSc1nc(N2CCOCC2)cc(C)c1C(=O)NCc1cccc(OC(F)(F)F)c1 [Example 130, 2-Ethylsulfanyl-4-methyl-6-morpholin-4-yl-N-[[3-(trifluoromethyloxy)-phenyl]methyl]-pyridine-3-carboxylic acid amide] | 148% | 74 nM
CCCc1nc(N2CCOCC2)cc(C)c1C(=O)NCCCC(F)(F)F [Example 320, 4-Methyl-6-morpholin-4-yl-2-propyl-N-(4,4,4-trifluoro-butyl)-pyridine-3-carboxylic acid amide] | 192% | 826 nM
CCSc1nc(N(CCOC)CCOC)cc(C)c1C(=O)NCc1cccc(F)c1 [Example 126, 6-[Bis(2-methoxy-ethyl)-amino]-2-ethylsulfanyl-N-[(3-fluorophenyl)-methyl]-4-methyl-pyridine-3-carboxylic acid amide] | 145% | 2090 nM
CCSc1nc(N2CCN(CC(F)(F)F)CC2)cc(C)c1C(=O)NCc1cccc(F)c1 [Example 251, 2-Ethylsulfanyl-N-[(3-fluorophenyl)-methyl]-4-methyl-6-[4-(2,2,2-trifluoro-ethyl)-piperazin-1-yl]-pyridine-3-carboxylic acid amide] | 97% | 1590 nM
CCSc1nc(N2CCOC[C@@H]2COC)cc(C)c1C(=O)NCc1ccc(F)cc1 [Example 249, 2-Ethylsulfanyl-N-[(4-fluorophenyl)-methyl]-6-[(3S)-3-(methoxymethyl)-morpholin-4-yl]-4-methyl-pyridine-3-carboxylic acid amide] | 129% | 82 nM
Cc1cc(N2CCOCC2)nc(OC2COC2)c1C(=O)NCc1cccc(F)c1 [Example 317, N-[(3-Fluorophenyl)-methyl]-4-methyl-6-morpholin-4-yl-2-(oxetan-3-yloxy)-pyridine-3-carboxylic acid amide] | 116% | 1120 nM
Cc1cc(N2CCOCC2)nc(N(C)C)c1C(=O)NCc1cc(F)cc(F)c1 [Example 242, N-[(3,5-Difluoro-phenyl)-methyl]-2-dimethylamino-4-methyl-6-morpholin-4-yl-pyridine-3-carboxylic acid amide] | 214% | 366 nM
COc1nc(N2CCOCC2)cc(C)c1C(=O)NCc1ccc(F)cc1 [Example 39, N-[(4-Fluorophenyl)-methyl]-2-methoxy-4-methyl-6-morpholin-4-yl-pyridine-3-carboxylic acid amide] | 143% | 645 nM
CCSc1nc(N(C)C2CCCOC2)cc(C)c1C(=O)NCc1cccc(F)c1 (stereo not shown) [Example 261, 2-Ethylsulfanyl-N-[(3-fluorophenyl)-methyl]-4-methyl-6-(methyl-tetrahydro-pyran-3-yl-amino)-pyridine-3-carboxylic acid amide] | 96% | 786 nM
CCSc1nc(N(C)C(=O)c2ccc(F)cc2)cc(C)c1C(=O)NCc1cccc(F)c1 [Example 120, 2-Ethylsulfanyl-6-[(4-fluoro-benzoyl)-methyl-amino]-N-[(3-fluorophenyl)-methyl]-4-methyl-pyridine-3-carboxylic acid amide] | 10% | –
CCSc1nc(N2CCOCC2)cc(C)c1C(=O)NCCC(O)C(C)C (stereo not shown) [Example 286, 2-Ethylsulfanyl-N-(3-hydroxy-4-methyl-pentyl)-4-methyl-6-morpholin-4-yl-pyridine-3-carboxylic acid amide] | 198% | 1750 nM
CCSc1nc(N2CCOCC2)cc(C)c1C(=O)NCCCC1CCCC1 [Example 105, N-(3-Cyclopentyl-propyl)-2-ethylsulfanyl-4-methyl-6-morpholin-4-yl-pyridine-3-carboxylic acid amide] | 207% | 179 nM
COc1nc(N2CCOCC2)cc(C)c1C(=O)NCc1cc(F)cc(F)c1 [Example 3, N-[(3,5-Difluoro-phenyl)-methyl]-2-methoxy-4-methyl-6-morpholin-4-yl-pyridine-3-carboxylic acid amide] | 132% | 233 nM

Compound | Emax | EC50
CCSc1nc(N(C)Cc2ccccn2)cc(C)c1C(=O)NCc1cccc(F)c1 [Example 121, 2-Ethylsulfanyl-N-[(3-fluorophenyl)-methyl]-4-methyl-6-[methyl-(pyridin-2-yl-methyl)-amino]-pyridine-3-carboxylic acid amide] | 35% | –
CCSc1nc(N2CCOC(C(F)(F)F)C2)cc(C)c1C(=O)NCc1cccc(F)c1 (stereo not shown) [Example 260, 2-Ethylsulfanyl-N-[(3-fluorophenyl)-methyl]-4-methyl-6-[2-(trifluoromethyl)-morpholin-4-yl]-pyridine-3-carboxylic acid amide] | 127% | 149 nM
CSc1nc(N2CCOC[C@H]2C)cc(C)c1C(=O)NCCCC(C)(C)C [Example 192, N-(4,4-Dimethyl-pentyl)-4-methyl-6-[(3R)-3-methyl-morpholin-4-yl]-2-methylsulfanyl-pyridine-3-carboxylic acid amide] | 236% | 46 nM
COc1nc(N2CCOC[C@H]2C)cc(C)c1C(=O)NCc1cccc(F)c1 [Example 214, N-[(3-Fluorophenyl)-methyl]-2-methoxy-4-methyl-6-[(3R)-3-methyl-morpholin-4-yl]-pyridine-3-carboxylic acid amide] | 194% | 224 nM
COc1nc(N2CCOC[C@H]2C)cc(C)c1C(=O)NCc1ccc(F)c(F)c1 [Example 226, N-[(3,4-Difluoro-phenyl)-methyl]-2-methoxy-4-methyl-6-[(3R)-3-methyl-morpholin-4-yl]-pyridine-3-carboxylic acid amide] | 186% | 129 nM
CCOc1nc(N2CCOC[C@H]2C)cc(C)c1C(=O)NCCCC(C)(C)C [Example 187, N-(4,4-Dimethyl-pentyl)-2-ethoxy-4-methyl-6-[(3R)-3-methyl-morpholin-4-yl]-pyridine-3-carboxylic acid amide] | 242% | 49 nM
CCOc1nc(N2CCOC[C@H]2C)cc(C)c1C(=O)NCc1ccc(Cl)cc1 [Example 273, N-[(4-Chlorophenyl)-methyl]-2-ethoxy-4-methyl-6-[(3R)-3-methyl-morpholin-4-yl]-pyridine-3-carboxylic acid amide] | 163% | 137 nM
CCSc1nc(N2CCOCC2)cc(C)c1C(=O)NCc1ccc(F)cc1O [Example 18, 2-Ethylsulfanyl-N-[(4-fluoro-2-hydroxy-phenyl)methyl]-4-methyl-6-morpholin-4-yl-pyridine-3-carboxylic acid amide] | 224% | 98 nM
CCN(C)c1nc(N2CCOCC2)cc(C)c1C(=O)NCc1cccc(F)c1 [Example 127, 2-(Ethyl-methyl-amino)-N-[(3-fluorophenyl)-methyl]-4-methyl-6-morpholin-4-yl-pyridine-3-carboxylic acid amide] | 238% | 385 nM
Cc1cc(N2CCOCC2)nc(C(C)C)c1C(=O)NCCC(O)C(F)(F)F (racemic) [Example X6, 2-Isopropyl-4-methyl-6-morpholin-4-yl-N-(4,4,4-trifluoro-3-hydroxy-butyl)-pyridine-3-carboxylic acid amide] | – | 1990 nM
Cc1cc(N2CCOCC2)nc(C(C)(C)C)c1C(=O)NCCCC(C)(C)C [Example 220, 2-tert-Butyl-N-(4,4-dimethyl-pentyl)-4-methyl-6-morpholin-4-yl-pyridine-3-carboxylic acid amide] | 166% | 682 nM
CCSc1nc(N2CCOCC2)cc(C)c1C(=O)NCCCC(C)(C)CC [Example 348, N-(4,4-Dimethyl-hexyl)-2-ethylsulfanyl-4-methyl-6-morpholin-4-yl-pyridine-3-carboxylic acid amide] | 228% | 22 nM
CCSc1nc(N(C)Cc2ccc(F)cc2)cc(C)c1C(=O)NCc1cccc(F)c1 [Example 52, 2-Ethylsulfanyl-N-[(3-fluorophenyl)-methyl]-6-[(4-fluorophenyl)-methyl-methyl-amino]-4-methyl-pyridine-3-carboxylic acid amide] | 122% | 235 nM
CCOc1nc(N2CCCOCC2)cc(C)c1C(=O)NCc1cccc(F)c1 [Example 99, 2-Ethoxy-N-[(3-fluorophenyl)-methyl]-4-methyl-6-([1,4]oxazepan-4-yl)-pyridine-3-carboxylic acid amide] | 134% | 899 nM
CCSc1nc(N2CCC(C)(C)CC2)cc(C)c1C(=O)NCc1cccc(F)c1 [Example 74, 6-(4,4-Dimethyl-piperidin-1-yl)-2-ethylsulfanyl-N-[(3-fluorophenyl)-methyl]-4-methyl-pyridine-3-carboxylic acid amide] | 70% | 702 nM
CCSc1nc(N2CCOCC2)cc(C)c1C(=O)NCc1cc(C(F)(F)F)ccc1F [Example 95, 2-Ethylsulfanyl-N-[[2-fluoro-5-(trifluoromethyl)-phenyl]-methyl]-4-methyl-6-morpholin-4-yl-pyridine-3-carboxylic acid amide] | 62% | 56 nM
